In patent publication US10239844B2, “Disubstituted triazole analogs” (BioVentures, LLC, priority 2014, dated 2019):

How the values were obtained:
Format in all cases: cell-based, human
CCRF-CEM = test: NCI 60 panel five-dose growth inhibition, Leukemia; conditions: for GI50: Homo sapiens
HL-60(T13) = test: NCI 60 panel five-dose growth inhibition, Leukemia; conditions: Homo sapiens
MOLT-4 = test: NCI 60 panel five-dose growth inhibition, Leukemia; conditions: MOLT-4, Leukemia; for GI50: Homo sapiens
RPMI-8226 = test: NCI 60 panel five-dose growth inhibition, Leukemia; conditions: RPMI-8226, Leukemia; for GI50: Homo sapiens
SR = test: NCI 60 panel five-dose growth inhibition, Leukemia; conditions: for GI50: Homo sapiens
A549/ATCC = test: NCI 60 panel five-dose growth inhibition, Non-Small Cell Lung Cancer; conditions: for GI50: Homo sapiens
HOP-92 = test: as above; conditions: HOP-92, Non-Small Cell Lung Cancer; for GI50: Homo sapiens
NCI-H23 = test: as above; conditions: for GI50: Homo sapiens
COLO 205 = test: NCI 60 panel five-dose growth inhibition, Colon Cancer; conditions: COLO 205, Colon Cancer; for GI50: Homo sapiens
HCC-2998 = test: as above; conditions: HCC-2998, Colon Cancer; for GI50: Homo sapiens
HT29 = test: as above; conditions: for GI50: Homo sapiens, HT-29
SW-620 = test: as above; conditions: SW-620, Colon Cancer; for GI50: Homo sapiens
SF-268 = test: NCI 60 panel five-dose growth inhibition, CNS Cancer; conditions: SF-268, CNS Cancer; for GI50: Homo sapiens
SF-295 = test: as above; conditions: SF-295, CNS Cancer; for GI50: Homo sapiens
SF-539 = test: as above; conditions: for GI50: Homo sapiens
SNB-19 = test: as above; conditions: SNB-19, CNS Cancer; for GI50: Homo sapiens
SNB-75 = test: as above; conditions: SNB-75, CNS Cancer; for GI50: Homo sapiens
LOX IMVI = test: NCI 60 panel five-dose growth inhibition, Melanoma; conditions: for GI50: Homo sapiens
M14 = test: NCI 60 panel five-dose growth inhibition, Melanoma; conditions: for GI50: Homo sapiens
MDA-MB-435 = test: NCI 60 panel five-dose growth inhibition, Melanoma; conditions: for GI50: Homo sapiens
SK-MEL-2 = test: NCI 60 panel five-dose growth inhibition, Melanoma; conditions: SK-MEL-2, Melanoma; for GI50: Homo sapiens
5K-MEL-5 = test: NCI 60 panel five-dose growth inhibition, Melanoma; conditions: 5K-MEL-5, Melanoma; for GI50: Homo sapiens
UACC-62 = test: NCI 60 panel five-dose growth inhibition, Melanoma; conditions: for GI50: Homo sapiens, UACC-62, UACC-62, Melanoma; for TGI: UACC-62, Melanoma
IGROV1 = test: NCI 60 panel five-dose growth inhibition, Ovarian Cancer; conditions: for GI50: Homo sapiens, IGROV-1
OVCA R-3 = test: as above; conditions: for GI50: Homo sapiens, OVCAR-3
NCI/ADR-RES = test: as above; conditions: for GI50: Homo sapiens
SK-OV-3 = test: as above; conditions: SK-OV-3, Ovarian Cancer; for GI50: Homo sapiens
786-0 = test: NCI 60 panel five-dose growth inhibition, Renal Cancer; conditions: 786-0, Renal Cancer; for GI50: Homo sapiens
U0-31 = test: as above; conditions: U0-31, Renal Cancer; for GI50: Homo sapiens
PC-3 = test: NCI 60 panel five-dose growth inhibition, Prostate Cancer; conditions: PC-3, Prostate Cancer; for GI50: Homo sapiens
DU-145 = test: as above; conditions: DU-145, Prostate Cancer; for GI50: Homo sapiens
MCF7 = test: NCI 60 panel five-dose growth inhibition, Breast Cancer; conditions: for GI50: Homo sapiens
MDA-MB-231/ATCC = test: as above; conditions: for GI50: Homo sapiens
HS 5781 = test: as above; conditions: HS 5781, Breast Cancer; for GI50: Homo sapiens
MDA-MB-468 = test: as above; conditions: MDA-MB-468, Breast Cancer; for GI50: Homo sapiens
SK-MEL-28 = test: NCI 60 panel five-dose growth inhibition, Melanoma; conditions: SK-MEL-28, Melanoma

For `COc1cc(-c2n[nH]nc2-c2ccc3ccccc3n2)cc(OC)c1OC` [Example 4, 2-(5-(3,4,5-trimethoxyphenyl)-2H-1,2,3-triazol-4-yl)quinoline], the TGI (CCRF-CEM) was 21800 nM, the GI50 (CCRF-CEM) was 31.9 nM and the GI50 (HL-60(T13)) was 22.7 nM. The GI50 (MOLT-4) was 48.2 nM, the TGI (MOLT-4) was 20000 nM and the GI50 (RPMI-8226) was 36.8 nM. The TGI (RPMI-8226) was 21100 nM, the TGI (SR) was 16900 nM and the GI50 (SR) was under 10 nM. The TGI (A549/ATCC) was over 100000 nM, the GI50 (A549/ATCC) was 37.4 nM and the TGI (HOP-92) was 2670 nM. For the same compound, the GI50 (HOP-92) was under 10 nM, the TGI (NCI-H23) was 27900 nM and the GI50 (NCI-H23) was 37.7 nM. For the same compound, the TGI (COLO 205) was 640 nM, the GI50 (COLO 205) was 149 nM and the TGI (HCC-2998) was 11400 nM. The GI50 (HCC-2998) was 45.9 nM, the TGI (HT29) was 20500 nM and the GI50 (HT29) was 47.6 nM. For the same compound, the GI50 (SW-620) was 29.5 nM, the TGI (SW-620) was over 100000 nM and the GI50 (SF-268) was 177 nM. The TGI (SF-268) was over 100000 nM, the GI50 (SF-295) was 10.8 nM and the TGI (SF-295) was 150 nM. For the same compound, the GI50 (SF-539; SF-539, CNS Cancer) was 13.8 nM, the TGI (SF-539; SF-539, CNS Cancer) was 40 nM and the GI50 (SNB-19) was 36.9 nM. The TGI (SNB-19) was over 100000 nM, the GI50 (SNB-75) was 14.2 nM and the TGI (SNB-75) was over 100000 nM. It also gave a TGI (LOX IMVI) of over 100000 nM, a GI50 (LOX IMVI) of 75.5 nM and a TGI (M14) of over 100000 nM. It also gave a GI50 (M14) of under 10 nM, a GI50 (MDA-MB-435; MDA-MB-435, Melanoma) of under 10 nM and a TGI (MDA-MB-435; MDA-MB-435, Melanoma) of 10 nM. The “sensitivity to the growth inhibitory effects” value (MDA-MB-435; MDA-MB-435, in words) was “sensitive”, the GI50 (SK-MEL-2) was 55.5 nM and the TGI (SK-MEL-2) was over 100000 nM. It also gave a TGI (5K-MEL-5) of 320 nM, a GI50 (5K-MEL-5) of 26.7 nM and a GI50 (UACC-62) of under 10 nM. For the same compound, the TGI (UACC-62) was over 100000 nM, the TGI (IGROV1) was over 100000 nM and the GI50 (IGROV1) was 50.9 nM. It also gave a GI50 (OVCA R-3; OVCA R-3, Ovarian Cancer) of 24.4 nM, a TGI (OVCA R-3; OVCA R-3, Ovarian Cancer) of over 100000 nM and a TGI (NCI/ADR-RES) of 80 nM. The GI50 (NCI/ADR-RES) was under 10 nM, the GI50 (SK-OV-3) was 45.8 nM and the TGI (SK-OV-3) was over 100000 nM. For the same compound, the TGI (786-0) was over 100000 nM, the GI50 (786-0) was 15.3 nM and the GI50 (U0-31) was 20 nM. It also gave a TGI (U0-31) of over 100000 nM, a GI50 (PC-3) of 41.5 nM and a TGI (PC-3) of over 100000 nM. For the same compound, the TGI (DU-145) was over 100000 nM, the GI50 (DU-145) was 44.8 nM and the TGI (MCF7) was over 100000 nM. The GI50 (MCF7) was 24.5 nM, the TGI (MDA-MB-231/ATCC) was over 100000 nM and the GI50 (MDA-MB-231/ATCC) was 46 nM. For the same compound, the TGI (HS 5781) was over 100000 nM, the GI50 (HS 5781) was 40.9 nM and the GI50 (MDA-MB-468) was 23.3 nM. For the same compound, the TGI (MDA-MB-468) was 80 nM.

In the case of `COc1ccc(-c2n[nH]nc2-c2cc(OC)cc(OC)c2)cc1` [Example 5, 4-(3,5-dimethoxyphenyl)-5-(4-methoxyphenyl)-2H-1,2,3-triazole], the TGI (CCRF-CEM) is reported as 46300 nM, the GI50 (CCRF-CEM) is reported as under 10 nM and the GI50 (HL-60(T13)) is reported as under 10 nM. It also gave a GI50 (MOLT-4) of 12 nM, a TGI (MOLT-4) of 16100 nM and a GI50 (RPMI-8226) of under 10 nM. It also gave a TGI (RPMI-8226) of 24600 nM, a TGI (SR) of over 100000 nM and a GI50 (SR) of under 10 nM. It also gave a TGI (A549/ATCC) of 73400 nM, a GI50 (A549/ATCC) of under 10 nM and a TGI (HOP-92) of 80 nM. For the same compound, the GI50 (HOP-92) was under 10 nM, the TGI (NCI-H23) was 68700 nM and the GI50 (NCI-H23) was under 10 nM. The TGI (COLO 205) was 120 nM, the GI50 (COLO 205) was 29.2 nM and the TGI (HCC-2998) was 22400 nM. The GI50 (HCC-2998) was 24.9 nM, the TGI (HT29) was 10800 nM and the GI50 (HT29) was under 10 nM. The GI50 (SW-620) was under 10 nM, the TGI (SW-620) was over 100000 nM and the GI50 (SF-268) was under 10 nM. The TGI (SF-268) was 90000 nM, the GI50 (SF-295) was under 10 nM and the TGI (SF-295) was 27500 nM. The GI50 (SF-539; SF-539, CNS Cancer) was under 10 nM, the TGI (SF-539; SF-539, CNS Cancer) was under 10 nM and the TGI (SF-539; SF-539, as stated in text) was “less than 10 nM”. For the same compound, the GI50 (SNB-19) was under 10 nM, the TGI (SNB-19) was over 100000 nM and the GI50 (SNB-75) was under 10 nM. The TGI (LOX IMVI) was over 100000 nM, the GI50 (LOX IMVI) was under 10 nM and the TGI (M14) was 23000 nM. The GI50 (M14) was under 10 nM, the GI50 (MDA-MB-435; MDA-MB-435, Melanoma) was under 10 nM and the TGI (MDA-MB-435; MDA-MB-435, Melanoma) was under 10 nM. The TGI (MDA-MB-435; MDA-MB-435, as stated in text) was “less than 10 nM”, the GI50 (SK-MEL-2) was under 10 nM and the TGI (SK-MEL-2) was 30500 nM. The TGI (SK-MEL-28) was 60700 nM, the TGI (5K-MEL-5) was 20 nM and the GI50 (5K-MEL-5) was under 10 nM. It also gave a GI50 (UACC-62) of over 1000 nM, a TGI (UACC-62) of over 100000 nM and a TGI (IGROV1) of 21500 nM. The GI50 (IGROV1) was under 10 nM, the GI50 (OVCA R-3; OVCA R-3, Ovarian Cancer) was under 10 nM and the TGI (OVCA R-3; OVCA R-3, Ovarian Cancer) was under 10 nM. For the same compound, the TGI (OVCA R-3; OVCAR-3, as stated in text) was “less than 10 nM”, the TGI (NCI/ADR-RES) was 17500 nM and the GI50 (NCI/ADR-RES) was under 10 nM. It also gave a GI50 (SK-OV-3) of under 10 nM, a TGI (SK-OV-3) of 40300 nM and a TGI (786-0) of 19400 nM. It also gave a GI50 (786-0) of under 10 nM, a GI50 (U0-31) of under 10 nM and a TGI (U0-31) of 25100 nM. It also gave a GI50 (PC-3) of under 10 nM, a TGI (PC-3) of 35200 nM and a GI50 (DU-145) of under 10 nM. For the same compound, the TGI (MCF7) was over 100000 nM, the GI50 (MCF7) was under 10 nM and the TGI (MDA-MB-231/ATCC) was over 100000 nM. It also gave a GI50 (MDA-MB-231/ATCC) of under 10 nM, a TGI (HS 5781) of over 100000 nM and a GI50 (HS 5781) of under 10 nM. The GI50 (MDA-MB-468) was under 10 nM and the TGI (MDA-MB-468) was 22400 nM.
